“Also recorded” adds a separate entry of the source.
Assays:
[1] = system: 22Rv1 cells; test: shAVPR1a depletion, growth curves and trypan blue cell death, 22Rv1; format: cell-based, human; settings: 22Rv1 stably expressing shAVPR1a vs shGFP
Description: (§1) FIGS. 3A-3D. Depletion of AVPR1a decreases aggressive prostate cancer cell proliferation. […] Live cells (trypan blue exclusion) were counted at the indicated times (hr). Significant differences (p<0.05) in proliferation between shGFP and shAVPR1a-transduced cells occurred by 48-72 hr in CRPC (A-C) but not in normal prostate epithelial cells, RWPE-1 (D). Lower panels quantify AVPR1a mRNA depletion by shRNA in each cell line.
(§2) FIGS. 4A-4E. Depletion of AVPR1a promotes death of aggressive prostate cancer cells. (A) 22Rv1, (B) CWR-R1, (C) PC3 or (D) RWPE-1 cells stably expressing either plk0.1-shGFP or -shAVPR1a were plated and grown as in FIG. 3. Adherent and floating cells were harvested and cells that stained with trypan blue or that excluded stain were counted. Data represent three independent experiments performed in triplicate. Significance was determined using a Student's t-test comparing to shGFP controls (***, p<0.001). (E) Cell lysates were immunoblotted with antibodies that recognize cleaved PARP, cyclin A, and actin.

[2] = system: CWR-R1 cells; test: shAVPR1a depletion, growth curves and trypan blue cell death, CWR-R1; format: cell-based, human; settings: CWR-R1 stably expressing shAVPR1a vs shGFP
Description: as §1, §2

[3] = system: PC3 cells; test: shAVPR1a depletion, growth curves and trypan blue cell death, PC3; format: cell-based, human; settings: PC3 stably expressing shAVPR1a vs shGFP
Description: as §1, §2

[4] = system: RWPE1 cells; test: shAVPR1a depletion, growth curves and trypan blue cell death, RWPE1; format: cell-based, human; settings: RWPE1 stably expressing shAVPR1a vs shGFP
Description: as §1, §2

[5] = system: cleaved PARP, Cyclin A, p-RB; test: Immunoblot of apoptosis and G1/S cell-cycle markers after AVPR1a depletion; format: cell-based, human
Method: as §2
(§3) This finding is significant as AR splice variants are a proposed mechanism of resistance to drugs that target full length AR including the newer agents, abiraterone and enzalutamide (6,7). Thus, targeting AVPR1a may be a strategy to overcome therapeutic resistance to these next generation drugs.
Next, Western-blot analysis was performed in PC3, 22Rv1 and LNCaP Abl (CRPC) and RWPE1 (non-tumorigenic prostate epithelial cells) to examine G1/S cell-cycle markers: Cyclin A, p-RB or P27.

[6] = system: full length AR and AR splice variants; test: Immunoblot of AR after AVPR1a depletion in 22Rv1; format: cell-based, human
Description: FIG. 5. AVPR1a knock down results in down-regulation of androgen receptor (AR) and AR splice variant expression in human prostate cancer cells. […] ARdeltaLBD refers to C-terminally truncated AR splice variants such as AR3.
as §3

[7] = system: 22Rv1, CWR-R1 or PC3 cells; test: Soft agar anchorage independent growth after AVPR1a depletion; format: cell-based, human
Method: FIG. 6. AVPR1a is necessary for anchorage independent growth of human prostate cancer cells. The growth in soft agar of 22Rv1, CWR-R1 or PC3 cells stably expressing the indicated shRNA vectors was assessed. Average colony number per plate±SEM is plotted. Data represent two independent experiments performed in triplicate. Significance was determined using a Student's t-test comparing to shGFP controls (***, p<0.001).
as §3
Next, PC3 and 22RV1 cells (CRPC cell lines) in which AVPR1a was depleted (or control shGFP) were cultured in soft agar for three weeks to assess anchorage independent growth (anoikis resistance).

[8] = system: CRPC cells (PC3, 22RV1, LNCaP-abl, C4-2, CWR-R1); test: shAVPR1a depletion, live cell counting, CRPC cells (Example 8); format: cell-based, human
Description: (§4) (● shGFP served as a control, SEQ ID NO: 5-[…] A summary of the human prostate cell lines used is provided below in Table 1:
(§5) Data represent three independent experiments performed in triplicate for all cell lines except C4-2, which was done one time in triplicate. […] A second distinct AVPR1a shRNA produced similar results (data not shown).

[9] = system: androgen dependent cells, LNCaP, VCaP and non-tumorigenic prostate epithelial RWPE1 cells; test: shAVPR1a depletion, live cell counting, androgen dependent and normal cells (Example 8); format: cell-based, human
Description: as §4, §5

[10] = system: 22Rv1 cells; test: SR49059 treatment, cell number and trypan blue cell death, 22Rv1; format: cell-based, human; settings: low nanomolar concentrations, five days
Method: (§6) FIGS. 7A-7I. Pharmacologic blockade of AVPR1a decreases human prostate cancer cell but not normal prostate epithelial cell proliferation and selectively kills human prostate cancer cells. (A) 22Rv1, (B) CWR-R1, (C) PC3, and (D) RWPE-1 cells were treated with vehicle or SR49059 at the indicated concentrations and harvested five days post treatment. A representative experiment (of four) was performed in triplicate and data are plotted as cell number (thousands)±SD. Significance was determined using a Student's t-test comparing to vehicle controls (**, p<0.01; ***, p<0.001). (E) 22Rv1, (F) CWR-R1, (G) PC3 or (H) RWPE-1 cells were plated and grown as described above. Adherent and floating cells were harvested and cells that stained with trypan blue or that excluded stain were counted. A representative experiment (of four) was performed in triplicate. Significance was determined using a Student's t-test comparing to vehicle controls (**, p<0.01; ***, p<0.001). (I) Lysates from cells in (A)-(D) were immunoblotted with antibodies that recognize cleaved PARP and actin.

[11] = system: CWR-R1 cells; test: SR49059 treatment, cell number and trypan blue cell death, CWR-R1; format: cell-based, human; settings: low nanomolar concentrations, five days
Method: as §6

[12] = system: PC3 cells; test: SR49059 treatment, cell number and trypan blue cell death, PC3; format: cell-based, human; settings: low nanomolar concentrations, five days
Method: as §6

[13] = system: RWPE1 cells; test: SR49059 treatment, cell number and trypan blue cell death, RWPE-1 normal prostate epithelial cells; format: cell-based, human
Method: as §6

[14] = system: LNCaP cells; test: Relcovaptan treatment of androgen dependent LNCaP cells (data not shown); format: cell-based, human
[15] = system: cleaved PARP; test: Immunoblot for cleaved PARP after Relcovaptan treatment; format: cell-based, human
Method: as §6

[16] = system: 22Rv1 xenografts; test: Pilot 22Rv1 xenograft in castrated nude mice, Relcovaptan IP; format: in vivo; settings: 2.5 mg/kg IP, 5 times per week
Method: FIG. 8. […] 22RV1 cells (2×106) resuspended in BD Matrigel were injected into both hind flanks of castrated nude mice (n=8). […] Top graph, once palpable, tumor size was measured five days per week. Significance was determined using a Student's t-test comparing to vehicle controls (* p<0.05). Lower graph, mice were weighed five days per week.

[17] = system: ERK1/2 phosphorylation; test: Phospho-ERK1/2 immunoblot, AVP plus/minus Relcovaptan (FIG. 10); format: cell-based, human; settings: 22Rv1 or CWR-R1, 25 min
Description: FIG. 10. […] Lysates were immunoblotted for phospho-ERK1/2 and total ERK1/2.

[18] = system: 22Rv1, VCaP and RWPE1 cells; test: Relcovaptan on prostate cancer cell growth / anchorage independent growth (Example 10); format: cell-based, human
Method: The effect of an AVPR1a antagonist on the anchorage independent growth of a castration-resistant prostate cancer cell line (i.e., 22Rv1) was evaluated.

[19] = system: ERK phosphorylation; test: Total and phosphoERK after AVP stimulation of 22Rv1 with AVPR1a antagonist pretreatment (FIG. 18); format: cell-based, human; settings: 10 nM AVP; for block of AVP-stimulated phosphoERK: antagonist pretreatment
Method: Total and phosphoERK levels were assessed following stimulation of 22Rv1 with 10 nM AVP for 25 minutes and pretreatment with AVPR1a antagonist (or vehicle control).

[20] = system: VCaP xenografts; test: Castration resistant VCaP xenografts in SCID mice, oral Relcovaptan; format: in vivo; settings: 50 mg/kg daily oral gavage, 14 days
Method: Subcutaneous VCaP xenografts (bilateral) were established in SCID mice. Mice were castrated when tumors reached 250-300 mm^3. […] Circulating prostate specific antigen (PSA) was measured by ELISA in mice prior to tumor xenografting (baseline), at the time of castration (pre-treatment) and at the time of sacrifice (post-treatment).

[21] = system: AVP type V1a and V2 receptors; settings: cited from earlier work
[22] = system: 22Rv1, CWR-R1, PC3 cells; test: AVP stimulation of castration resistant prostate cancer cell proliferation (FIG. 9); format: cell-based, human; settings: 1 nM AVP; six days
Method: (§7) FIG. 9A-9D. […] (A) 22Rv1, (B) CWR-R1, (C) PC3, or (D) RWPE-1 cells were plated at 10,000 cells/well in 24 well dishes and then treated with vehicle or arginine vasopressin (AVP) at the indicated concentrations the following day. Media were changed every day. Cells were harvested six days post treatment. Data represent four experiments performed in triplicate and are plotted as fold (treatment/vehicle)±SEM. Significance was determined using a Student's t-test comparing to vehicle controls (**, p<0.01).

[23] = system: RWPE1 cells; test: AVP effect on normal prostate epithelial cell proliferation; format: cell-based, human
Method: as §7
(§8) The effect of arginine vasopressin on the proliferation of a castration-resistant prostate cancer cell line (i.e., 22Rv1) was evaluated. Briefly, 22RV1 cells were treated with 1 nM, 10 nM or 1 μM arginine vasopressin (AVP) for six days followed by live cell counting.

[24] = system: 22Rv1 cells; test: AVP treatment of 22Rv1 cells, live cell counting (Example 9); format: cell-based, human; settings: 1 nM, 10 nM or 1 μM AVP, six days
Method: as §8

shAVPR1a: selective shRNA to AVPR1a, SEQ ID NO: 2 (hairpin printed as SEQ ID NO: 4 in b155) (GGTATGTGGAAGGACTCGCCTAAATCTTC)
cell death [1]: increased cell death | cell proliferation [1]: decreased cell proliferation | cell death [2]: increased cell death | cell proliferation [2]: decreased cell proliferation | cell death [3]: increased cell death | cell proliferation [3]: decreased cell proliferation | cell death [4]: not the normal human prostate epithelial RWPE1 cells | PARP cleavage ([5]; AVPR1a-depleted PC cells): observed | cyclin A ([5]; CRPC lines PC3, 22Rv1, LNCaP Abl, Example 8): decreased cyclin A | phosphorylation of the retinoblastoma protein ([5]; PC3 and 22Rv1, Example 8): decreased phosphorylation of the retinoblastoma protein | Cyclin A levels (G1 to S progression) ([5]; PC cells, Example 1): decreased levels of Cyclin A | phosphorylation of the retinoblastoma protein ([5]; RWPE1, Example 8): not RWPE1 cells | PARP cleavage ([5]; RWPE1 cells): not in RWPE1 cells | levels of full length AR and AR splice variants [6]: decreased levels of full length AR and AR splice variants | anchorage independent growth ([7]; PC3 and 22RV1, soft agar, three weeks, Example 8): significantly reduced anchorage independent growth | anchorage independent growth in soft agar ([7]; three PC cell lines (22Rv1, CWR-R1, PC3)): inhibition of anchorage independent growth in soft agar | proliferation of CRPC cells [8]: greatly decreased proliferation | androgen dependent and normal prostate epithelial cell proliferation [9]: less effect

COc1ccc(S(=O)(=O)N2c3ccc(Cl)cc3[C@](O)(c3ccccc3Cl)[C@@H]2C(=O)N2CCC[C@H]2C(N)=O)cc1OC [Relcovaptan]
cell death [10]: promoted CRPC cell death | proliferation [10]: inhibited proliferation | cell death [11]: promoted CRPC cell death | proliferation [11]: inhibited proliferation | cell death [12]: promotes cell death; also recorded: promoted CRPC cell death | proliferation [12]: inhibited proliferation | cell proliferation ([13]; 1-10 nM): no effect | cell survival ([13]; 1-10 nM): no effect | cell death ([13]; doses as high as 10 μM, data not shown): did not promote RWPE1 cell death | cell death [14]: approx. 20% | growth [14]: inhibited growth inhibition | cleavage of PARP ([15]; PC cells): cleavage of PARP | cleavage of PARP ([15]; normal prostate cells): not normal prostate cells | adverse effects / toxicity [16]: no adverse effects; also recorded: lack of toxicity | tumor growth ([16]; castrated nude mice): significantly decreased tumor growth at early time points; also recorded: decreases CRPC in vivo growth at early time points | inhibition of AVP-stimulated ERK phosphorylation ([17]; 1 nM AVP plus 1 nM Relcovaptan): inhibited this phosphorylation of ERK | anchorage independent growth ([18]; 10 μM or 25 μM, six days, FIG. 17): inhibits prostate cancer cell anchorage independent growth | prostate cancer cell proliferation ([18]; FIG. 16): inhibits prostate cancer cell proliferation | block of AVP-stimulated phosphoERK [19]: blocks ERK signaling | block of AVP-stimulated phosphoERK ([19]; listed as relcovaptan): blocked | body weight vs controls [20]: no loss of weight | growth of castration resistant VCaP xenografts ([20]; started seven days after castration): significantly slowed the growth; also recorded: slows growth of VCaP tumors | circulating PSA levels ([20]; ELISA): stabilization of PSA levels

Cc1nc2c([nH]1)-c1ccccc1N(C(=O)c1ccc(NC(=O)c3ccccc3-c3ccccc3)cc1)CC2 [Conivaptan]
AVP receptor blockade / selectivity [21]: non-selectively blocks both AVP type V1a and V2 receptors

NC(=O)CC[C@@H]1NC(=O)[C@H](Cc2ccccc2)NC(=O)[C@H](Cc2ccc(O)cc2)NC(=O)[C@@H](N)CSSC[C@@H](C(=O)N2CCC[C@H]2C(=O)N[C@@H](CCCN=C(N)N)C(=O)NCC(N)=O)NC(=O)[C@H](CC(N)=O)NC1=O [AVP, arginine vasopressin]
PC cell proliferation [22]: increased PC cell proliferation; also recorded: stimulates castration resistant prostate cancer cell proliferation | growth of normal RWPE1 cells ([23]; 1 nM AVP, six days): did not stimulate growth | RWPE1 cell proliferation ([23]; Example 9, data not shown): did not stimulate RWPE1 cell proliferation | proliferation of RWPE-1 ([23]; higher AVP doses): Decreased proliferation | ERK 1/2 phosphorylation (activation) ([17]; 1 nM AVP): activated ERK 1/2; also recorded: stimulates ERK1/2 phosphorylation | CRPC proliferation [24]: stimulated CRPC proliferation | phosphoERK levels ([19]; 25 minutes): increased phosphoERK levels

— US10231952B2, “Use of arginine vasopressin receptor antagonists for the treatment of prostate cancer” (UNIVERSITY OF MIAMI, priority 2014, dated 2019)
